The values that follow come from patent US11446287B2, “Compounds and methods for EP300 or CBP modulation and indications therefor” (Opna Immuno-Oncology SA, priority 2019, dated 2022).

The structures appear in SMILES notation.

The term IC50 denotes the concentration that gives 50% inhibition.

This assay deals with T1, Recombinant human BRD4 containing dual bromodomains (BRD4-BD12 (1-477)) (Homo sapiens, UniProt O60885).
T1 construct: Recombinant human BRD4 containing dual bromodomains (BRD4-BD12 (1-477)); made in house; host or cells: E. coli BL21-CodonPlus (DE3), modified pET vector
The assay can be described thus: BRD4 Alphascreen binding assay. The gist of the method:
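His-tagged human BRD4 tandem bromodomains (1-477, E. coli) incubated 1 h at room temperature with biotinylated tetra-acetylated H4 (1-21) peptide and compound in HEPES pH 7.5 buffer with 2 mM DTT. AlphaScreen signal read 30 min after adding beads (7.5 μg/ml); IC50 from four-parameter fit after normalization to controls.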
For orientation: Alpha assays give light when donor and acceptor beads are brought close together.
On to `Cc1noc(C)c1-c1cc2c(cn1)c(CC1CCC1)cn2-c1c(Cl)cc(C(=O)O)cc1Cl` [P-0149, 3,5-dichloro-4-(3-(cyclobutylmethyl)-6-(3,5-dimethylisoxazol-4-yl)-1H-pyrrolo[3,2-c]pyridin-1-yl)benzoic acid], for which the IC50 fell in the range of 8 to 1000 µM.
For `Cc1noc(C)c1-c1cnc2c(-c3ccccc3)cn(-c3c(Cl)cc(C(=O)O)cc3Cl)c2c1` [P-0150, 3,5-dichloro-4-(6-(3,5-dimethylisoxazol-4-yl)-3-phenyl-1H-pyrrolo[3,2-b]pyridin-1-yl)benzoic acid], the IC50 fell in the range of 1 to 8 µM.
As to `Cc1noc(C)c1-c1cnc2c(C3=CCOCC3)cn(-c3c(Cl)cc(C(=O)O)cc3Cl)c2c1` [P-0151, 3,5-dichloro-4-(3-(3,6-dihydro-2H-pyran-4-yl)-6-(3,5-dimethylisoxazol-4-yl)-1H-pyrrolo[3,2-b]pyridin-1-yl)benzoic acid], the 50% inhibitory concentration (IC50) lay within 1 to 8 µM.
As for `COc1cc(C(=O)O)cc(OCC2CC2)c1-c1cn([C@@H](C)c2ccccn2)c2ncc(-c3c(C)noc3C)cc12` [P-0152, (S)-3-(cyclopropylmethoxy)-4-(5-(3,5-dimethylisoxazol-4-yl)-1-(1-(pyridin-2-yl)ethyl)-1H-pyrrolo[2,3-b]pyridin-3-yl)-5-methoxybenzoic acid], the IC50 fell in the range of 8 to 1000 µM.
Consider `COc1cc(C(=O)O)cc(OCC(F)(F)F)c1-c1cn([C@@H](C)c2ccccn2)c2ncc(-c3c(C)noc3C)cc12` [P-0153, (S)-4-(5-(3,5-dimethylisoxazol-4-yl)-1-(1-(pyridin-2-yl)ethyl)-1H-pyrrolo[2,3-b]pyridin-3-yl)-3-methoxy-5-(2,2,2-trifluoroethoxy)benzoic acid], for which the IC50 lay within 8 to 1000 µM.
As to `Cc1noc(C)c1-c1cnc2c(-c3ccc(C(=O)O)cc3)c(C(F)(F)F)n([C@@H](C)c3ccccn3)c2c1` [P-0154, (S)-4-(6-(3,5-dimethylisoxazol-4-yl)-1-(1-(pyridin-2-yl)ethyl)-2-(trifluoromethyl)-1H-pyrrolo[3,2-b]pyridin-3-yl)benzoic acid], the IC50 was in the range of 0.0001 to 1 µM.
With `Cc1noc(C)c1-c1cnc2c(-c3ccccc3Cl)cn(C(C)(c3ccccn3)c3ccccn3)c2c1` [P-0155, 4-(3-(2-chloropheny1)-1-(1,1-di(pyridin-2-yl)ethyl)-1H-pyrrolo[3,2-b]pyridin-6-yl)-3,5-dimethylisoxazole] the figure was 0.0001 to 1 µM.
On to `Cc1noc(C)c1-c1cnc2c(c1)c(-c1ccc(C(=O)O)cc1OC(F)(F)F)cn2C(C1CC1)C1CC1` [P-0156, 4-(1-(dicyclopropylmethyl)-5-(3,5-dimethylisoxazol-4-yl)-1H-pyrrolo[2,3-b]pyridin-3-yl)-3-(trifluoromethoxy)benzoic acid], for which the IC50 was 8 to 1000 µM.
As for `Cc1noc(C)c1-c1cnc2c(c1)c(-c1ccc(C(=O)O)cc1OC(F)(F)F)cn2CC1CC(F)(F)C1` [P-0157, 4-(1-((3,3-difluorocyclobutyl)methyl)-5-(3,5-dimethylisoxazol-4-yl)-1H-pyrrolo[2,3-b]pyridin-3-yl)-3-(trifluoromethoxy)benzoic acid], the concentration for half-maximal inhibition (IC50) is 0.0001 to 1 µM.
As for `Cc1noc(C)c1-c1cnc2c(c1)c(-c1ccc(C(=O)O)cc1OC(F)(F)F)cn2-c1ccccn1` [P-0158, 4-(5-(3,5-dimethylisoxazol-4-yl)-1-(pyridin-2-yl)-1H-pyrrolo[2,3-b]pyridin-3-yl)-3-(trifluoromethoxy)benzoic acid], the IC50 was in the range of 0.0001 to 1 µM.
With `Cc1noc(C)c1-c1cnc2c(Cc3ccccn3)cn(-c3ccc(C(=O)O)cc3OC(F)(F)F)c2c1` [P-0159, 4-(6-(3,5-dimethylisoxazol-4-yl)-3-(pyridin-2-ylmethyl)-1H-pyrrolo[3,2-b]pyridin-1-yl)-3-(trifluoromethoxy)benzoic acid], the IC50 is 0.0001 to 1 µM.
`Cc1noc(C)c1-c1cnc2c(-c3cnn(C)c3)c(C(F)(F)F)n([C@@H](C)c3ccccn3)c2c1` [P-0160, (S)-3,5-dimethyl-4-(3-(1-methyl-1H-pyrazol-4-yl)-1-(1-(pyridin-2-yl)ethyl)-2-(trifluoromethyl)-1H-pyrrolo[3,2-b]pyridin-6-yl)isoxazole]: the IC50 is 0.0001 to 1 µM.
Consider `Cc1noc(C)c1-c1cnc2c(-c3cccc(CC(=O)O)c3)c(C(F)(F)F)n([C@@H](C)c3ccccn3)c2c1` [P-0161, (S)-2-(3-(6-(3,5-dimethylisoxazol-4-yl)-1-(1-(pyridin-2-yl)ethyl)-2-(trifluoromethyl)-1H-pyrrolo[3,2-b]pyridin-3-yl)phenyl)acetic acid], for which the IC50 was 8 to 1000 µM.
Take `Cc1noc(C)c1-c1cnc2c(-c3cccc(C(=O)O)c3)c(C(F)(F)F)n([C@@H](C)c3ccccn3)c2c1` [P-0162, (S)-3-(6-(3,5-dimethylisoxazol-4-yl)-1-(1-(pyridin-2-yl)ethyl)-2-(trifluoromethyl)-1H-pyrrolo[3,2-b]pyridin-3-yl)benzoic acid]: the IC50 was 8 to 1000 µM.
To `Cc1noc(C)c1-c1cnc2c(C(O)(C3CC3)C3CC3)cn(-c3ccc(C(=O)O)cc3OC(F)(F)F)c2c1` [P-0163, 4-(3-(dicyclopropyl(hydroxy)methyl)-6-(3,5-dimethylisoxazol-4-yl)-1H-pyrrolo[3,2-b]pyridin-1-yl)-3-(trifluoromethoxy)benzoic acid] belongs 8 to 1000 µM; to `Cc1noc(C)c1-c1cnc2c(-c3cc(C(=O)O)ccc3Cl)cn(C(C)(c3ccccn3)c3ccccn3)c2c1` [P-0164, 4-chloro-3-(1-(1,1-di(pyridin-2-yl)ethyl)-6-(3,5-dimethylisoxazol-4-yl)-1H-pyrrolo[3,2-b]pyridin-3-yl)benzoic acid], 1 to 8 µM; to `CCOc1cc(C(=O)O)cc(OCC)c1-n1cc(C(O)(C2CC2)C2CC2)c2ncc(-c3c(C)noc3C)cc21` [P-0165, 4-(3-(dicyclopropyl(hydroxy)methyl)-6-(3,5-dimethylisoxazol-4-yl)-1H-pyrrolo[3,2-b]pyridin-1-yl)-3,5-diethoxybenzoic acid], 8 to 1000 µM.
To `Cc1noc(C)c1-c1cnc2c(-c3cc(C(=O)O)ccc3C#N)cn(C(C)(c3ccccn3)c3ccccn3)c2c1` [P-0166, 4-cyano-3-(1-(1,1-di(pyridin-2-yl)ethyl)-6-(3,5-dimethylisoxazol-4-yl)-1H-pyrrolo[3,2-b]pyridin-3-yl)benzoic acid] belongs 0.0001 to 1 µM; to `C#Cc1ccccc1-c1cn(C(C)(c2ccccn2)c2ccccn2)c2cc(-c3c(C)noc3C)cnc12` [P-0167, 4-(1-(1,1-di(pyridin-2-yl)ethyl)-3-(2-ethynylphenyl)-1H-pyrrolo[3,2-b]pyridin-6-yl)-3,5-dimethylisoxazole], 0.0001 to 1 µM; to `CCOc1cc(C(=O)O)cc(OCC)c1-n1cc(-c2ccccc2)c2ncc(-c3c(C)noc3C)cc21` [P-0168, 4-(6-(3,5-dimethylisoxazol-4-yl)-3-phenyl-1H-pyrrolo[3,2-b]pyridin-1-yl)-3,5-diethoxybenzoic acid], 1 to 8 µM.
As to `Cc1noc(C)c1-c1cnc2c(-c3ccccc3C#N)cn(C(C)(c3ccccn3)c3ccccn3)c2c1` [P-0169, 2-(1-(1,1-di(pyridin-2-yl)ethyl)-6-(3,5-dimethylisoxazol-4-yl)-1H-pyrrolo[3,2-b]pyridin-3-yl)benzonitrile], the IC50 was in the range of 0.0001 to 1 µM.
